Measured values as given in patent publication US20230219965A1 (KSQ Therapeutics, Inc., priority 2020, published 2023).
Like-named read-outs stand apart in the source and are kept apart here.

What was measured:
[1] = system: Ub-PCNA levels in the nucleus of ES2 cells (USP1 activity); experiment: ES2 Ub-PCNA immunofluorescence (IF) assay; type: cell-based; details: ES2 cells, 3 hours, Ub-PCNA immunofluorescence, read-out: USP1 IC50 (Ub-PCNA)
Summary of the method: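 AC50 derived from percent Ub-PCNA-positive nuclei, positivity set by a 95% cutoff from untreated-well intensities. Readout by imaging immunofluorescence (anti-Ub-PCNA, DAPI nuclear mask) after methanol fixation. Compound exposure: 3 h at 37° C, 0.3% DMSO final, on cells plated overnight.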

[2] = Liver microsomal metabolic stability, rat liver microsomes (RLM); details: 1 μM compound, 1 mg/mL microsomes, NADPH; for half-life at 1 μM: rat, liver microsomes, t1/2 (min) in RLM
Procedure: (§1) Samples were prepared by adding 222.5 μL of a master solution (100 mM phosphate buffer and 1 mg/mL liver microsomes (HLM or RLM)) and 25 μL of a 10 mM NADPH solution to incubation plates, which were then warmed for 10 min. Each compound was separately dissolved in DMSO to prepare 10 mM stock solutions, which were then diluted to 100 μM with acetonitrile. A reaction was started by adding 2.5 μL of the 100 μM solution of each compound to separate incubation plates such that the final concentration of for each compound in each plate was 1 μM.
(§2) 25 μL aliquots of each sample were taken at 0.5, 5, 10, 15, 20 and 30 minutes, and the reaction was stopped by adding 5 volumes of cold acetonitrile with IS (100 nM alprazolam, 200 nM caffeine and 100 nM tolbutamide). The samples were then centrifuged at 3,220 G for 30 minutes, and 100 μL of the supernatant fluid was mixed with 100 μL of ultra-pure H2O.
(§3) The samples were then analyzed by LC-MS/MS. Peak areas were determined from extracted ion chromatograms. Slope values (k) were determined by linear regression of the natural logarithm of the remaining percentage of the compound vs. incubation time curve. The in vitro half-life (in vitro t1/2) was determined from the slope value using the following equation:

[3] = ADME solubility determination in PBS at pH 2.0 and pH 7.4; type: physicochemical; details: for solubility at 24 h: phosphate buffered saline, 25 °C, thermodynamic from solid
Summary of the method: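 Solubility was read by LC-MS/MS on centrifuged supernatants, calibrated to a known-concentration standard and corrected for dilution. Compound, dried down from 10 mM DMSO stock, was equilibrated 24 h at 25° C with shaking in PBS at pH 2.0 or pH 7.4.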

USP1/UAF1 enzyme = USP1/UAF1 enzyme (Homo sapiens, UniProt O94782); experiment: USP1/UAF1 deubiquitination assay (ubiquitin-rhodamine 110 substrate); type: biochemical; details: read-out: USP1 IC50 (Ub-Rho)
USP1/UAF1 enzyme, sequence (O94782 whole entry): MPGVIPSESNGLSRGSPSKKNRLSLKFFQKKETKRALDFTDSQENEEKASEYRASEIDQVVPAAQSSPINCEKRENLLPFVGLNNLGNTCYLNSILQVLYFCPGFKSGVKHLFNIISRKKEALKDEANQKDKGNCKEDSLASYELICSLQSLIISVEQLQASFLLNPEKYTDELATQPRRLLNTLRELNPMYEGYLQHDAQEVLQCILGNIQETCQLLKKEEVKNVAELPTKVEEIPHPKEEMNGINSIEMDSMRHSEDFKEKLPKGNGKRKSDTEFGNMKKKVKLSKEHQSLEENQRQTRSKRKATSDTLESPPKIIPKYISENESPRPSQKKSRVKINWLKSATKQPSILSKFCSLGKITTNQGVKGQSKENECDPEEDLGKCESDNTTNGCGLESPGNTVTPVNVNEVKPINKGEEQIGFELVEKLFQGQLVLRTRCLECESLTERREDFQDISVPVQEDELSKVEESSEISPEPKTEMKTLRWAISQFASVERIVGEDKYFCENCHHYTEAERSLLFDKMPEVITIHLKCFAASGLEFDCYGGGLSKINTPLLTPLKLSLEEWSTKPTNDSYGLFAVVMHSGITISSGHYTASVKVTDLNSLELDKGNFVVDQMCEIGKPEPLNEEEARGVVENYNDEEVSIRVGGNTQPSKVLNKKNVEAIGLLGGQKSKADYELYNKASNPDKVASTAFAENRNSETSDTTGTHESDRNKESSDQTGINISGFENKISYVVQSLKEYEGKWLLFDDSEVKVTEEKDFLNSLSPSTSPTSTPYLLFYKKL
USP1/UAF1 enzyme, sequence (Q8TAF3 whole entry partner): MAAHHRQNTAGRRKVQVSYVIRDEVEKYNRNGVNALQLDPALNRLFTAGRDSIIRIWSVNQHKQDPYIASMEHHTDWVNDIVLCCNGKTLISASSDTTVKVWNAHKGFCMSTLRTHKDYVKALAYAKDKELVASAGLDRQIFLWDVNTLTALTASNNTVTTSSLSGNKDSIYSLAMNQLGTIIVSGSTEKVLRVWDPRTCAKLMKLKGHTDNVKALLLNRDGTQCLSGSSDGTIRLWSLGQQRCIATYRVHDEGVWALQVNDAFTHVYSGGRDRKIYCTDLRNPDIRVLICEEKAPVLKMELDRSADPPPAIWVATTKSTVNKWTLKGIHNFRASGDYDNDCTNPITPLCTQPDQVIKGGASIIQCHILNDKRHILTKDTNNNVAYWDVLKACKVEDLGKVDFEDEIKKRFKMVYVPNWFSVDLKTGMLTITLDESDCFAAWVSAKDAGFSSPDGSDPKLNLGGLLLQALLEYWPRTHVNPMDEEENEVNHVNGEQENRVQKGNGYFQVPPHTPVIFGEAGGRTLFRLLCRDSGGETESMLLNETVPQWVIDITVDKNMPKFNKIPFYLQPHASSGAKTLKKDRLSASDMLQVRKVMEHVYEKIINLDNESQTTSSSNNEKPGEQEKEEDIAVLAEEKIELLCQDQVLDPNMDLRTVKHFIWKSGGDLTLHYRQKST
Summary of the method: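 Cleavage of 150 nM ubiquitin-rhodamine 110 by 0.05 nM USP1/UAF1 was followed as fluorescence (Ex480/Em540, kinetic, 30 min) in Tris-HCl pH 7.8 buffer with EDTA, BSA, DTT and Tween-20. Compounds, top 10 μM, were preincubated with enzyme 10 min; % inhibition against no-enzyme and DMSO wells gave four-parameter IC50s.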

[4] = Liver microsomal metabolic stability, human liver microsomes (HLM); details: for half-life at 1 μM: human, liver microsomes
Procedure: as §1, §2, §3

[5] = pH 2, aqueous buffer, PBS pH 2.0, 25° C., read-out: Solubility at pH 2.0
[6] = pH 7.4, aqueous buffer, PBS pH 7.4, 25° C., read-out: Solubility at pH 7.4

Row | IC50 ([1]; Homo sapiens, ES-2) [nM] | half-life at 1 μM [2] [min] | solubility at 24 h [3, 5] [µM] | solubility at 24 h [3, 6] [µM] | IC50 (USP1/UAF1 enzyme) [nM] | half-life at 1 μM [4] [min] | IC50 [1] [nM] | t1/2 (min) in RLM [2] | Solubility at pH 2.0 (μM) ([3]; PBS pH 2.0, 25° C., 24 hours) | Solubility at pH 7.4 (μM) ([3]; PBS pH 7.4, 25° C., 24 hours) | t1/2 (min) in HLM ([4]; human liver microsomes, 1 μM compound, 1 mg/mL microsomes, NADPH) | Structure (SMILES)
1 | < 100 | > 25 | ≥ 10 | ≥ 10 | < 100 | < 25 |  |  |  |  |  | CCn1cc(C(F)(F)F)nc1-c1ccc([C@H](C)N2C(=O)CCn3nc(-c4c(OC)ncnc4C4CC4)nc32)cc1 [Example 183]
2 | < 100 | < 25 | ≥ 10 | ≥ 10 | < 100 | > 25 |  |  |  |  |  | CCn1cc(C(F)(F)F)nc1-c1ccc([C@@H](C)N2C(=O)CCn3nc(-c4c(OC)ncnc4C4CC4)nc32)cc1 [Example 184]
3 | 100 to 500 | > 25 | < 10 | < 10 | < 100 | > 25 |  |  |  |  |  | CCn1cc(C(F)(F)F)nc1-c1ccc(CN2C(=O)CCn3nc(-c4c(Cl)cnn4C(C)C)nc32)cn1 [Example 186]
4 | < 100 | > 25 | ≥ 10 | ≥ 10 | 100 to 500 | > 25 |  |  |  |  |  | COc1ncnc(C2CC2)c1-c1nc2n(n1)CCC(=O)N2[C@@H](C)c1ccc(-c2nc(C(F)(F)F)cn2C(C)C)cc1 [Example 188]
5 | < 100 | > 25 | ≥ 10 | ≥ 10 | < 100 | > 25 |  |  |  |  |  | COc1ncnc(C2CC2)c1-c1nc2n(n1)CCC(=O)N2[C@H](C)c1ccc(-c2nc(C(F)(F)F)cn2C(C)C)cc1 [Example 189]
6 | < 100 | > 25 | ≥ 10 | ≥ 10 | < 100 | > 25 |  |  |  |  |  | CCn1cc(C(F)(F)F)nc1-c1ccc([C@H](C)N2C(=O)CCn3nc(-c4c(OC)ncnc4C4CC4)nc32)cc1F [Example 190]
7 | < 100 | < 25 | < 10 | < 10 | < 100 | > 25 |  |  |  |  |  | CCn1cc(C(F)(F)F)nc1-c1ccc([C@@H](C)N2C(=O)CCn3nc(-c4c(OC)ncnc4C4CC4)nc32)cc1F [Example 191]
8 | < 100 | < 25 | < 10 | < 10 | < 100 | < 25 |  |  |  |  |  | CCn1cc(C(F)(F)F)nc1-c1ccc([C@H](C)N2C(=O)CCn3nc(-c4c(Cl)cnn4C(C)C)nc32)cc1 [Example 193]
9 | < 100 | < 25 | < 10 | < 10 | < 100 | < 25 |  |  |  |  |  | CCn1cc(C(F)(F)F)nc1-c1ccc([C@@H](C)N2C(=O)CCn3nc(-c4c(Cl)cnn4C(C)C)nc32)cc1 [Example 194]
10 | < 100 | > 25 | ≥ 10 | ≥ 10 | 100 to 500 | > 25 |  |  |  |  |  | COc1ncnc(C2CC2)c1-c1nc2n(n1)CCC(=O)N2Cc1ccc(-c2nc(C(F)(F)F)cn2C(C)CF)cc1 (stereo not drawn) [Example 195]
11 | < 100 | > 25 | ≥ 10 | ≥ 10 | 100 to 500 | < 25 |  |  |  |  |  | COc1ncnc(C2CC2)c1-c1nc2n(n1)CCC(=O)N2[C@@H](C)c1ccc(-c2nc(C(F)(F)F)cn2C)c(F)c1 [Example 196]
12 | < 100 | > 25 | ≥ 10 | ≥ 10 | < 100 | > 25 |  |  |  |  |  | COc1ncnc(C2CC2)c1-c1nc2n(n1)CCC(=O)N2[C@H](C)c1ccc(-c2nc(C(F)(F)F)cn2C)c(F)c1 [Example 197]
13 | < 100 | > 25 | ≥ 10 | ≥ 10 | 100 to 500 | > 25 |  |  |  |  |  | COc1ncnc(C2CC2)c1-c1nc2n(n1)CCC(=O)N2[C@@H](C)c1ccc(-c2nc(C(F)(F)F)cn2C2CC2)cc1 [Example 200]
14 | < 100 | > 25 | ≥ 10 | ≥ 10 | < 100 | > 25 |  |  |  |  |  | COc1ncnc(C2CC2)c1-c1nc2n(n1)CCC(=O)N2[C@H](C)c1ccc(-c2nc(C(F)(F)F)cn2C2CC2)cc1 [Example 201]
15 | 100 to 500 | > 25 | ≥ 10 | ≥ 10 | 100 to 500 | > 25 |  |  |  |  |  | COc1ncnc(C2CC2)c1-c1nc2n(n1)CCC(=O)N2[C@@H](C)c1ccc(-n2nc(C(F)(F)F)cc2C)c(F)c1 [Example 203]
16 | < 100 | > 25 | ≥ 10 | ≥ 10 | < 100 | > 25 |  |  |  |  |  | COc1ncnc(C2CC2)c1-c1nc2n(n1)CCC(=O)N2[C@H](C)c1ccc(-n2nc(C(F)(F)F)cc2C)c(F)c1 [Example 204]
17 | < 100 | > 25 | ≥ 10 | < 10 | < 100 | > 25 |  |  |  |  |  | COc1ncnc(C2CC2)c1-c1nc2n(n1)CCC(=O)N2[C@H](C)c1ccc(-c2nc(C(F)(F)F)c(Br)n2C)cc1 [Example 206]
18 | < 100 | > 25 | ≥ 10 | ≥ 10 | < 100 | > 25 |  |  |  |  |  | COc1ncnc(C2CC2)c1-c1nc2n(n1)CCC(=O)N2Cc1ccc(-c2nc(C(F)(F)F)cn2C(C)C)c(F)c1OC [Example 210]
19 | < 100 | < 25 | ≥ 10 | < 10 | < 100 | > 25 |  |  |  |  |  | CCn1cc(C(F)(F)F)nc1-c1ccc([C@H](C)N2C(=O)CCn3nc(-c4c(OC)ncnc4C4CC4)nc32)cc1Cl [Example 211]
20 |  |  |  |  | < 100 |  | < 100 | ++ (“++” indicates 25 minutes greater) | ++ (“++” indicates 10 μM or greater) | ++ (“++” indicates 10 μM or greater) | ++ (“++” indicates 25 minutes greater) | CCn1cc(C(F)(F)F)nc1-c1ccc([C@H](C)N2C(=O)CCn3nc(-c4c(OC)ncnc4C4CC4)nc32)cc1Cl [Example 212]
21 | 100 to 500 | > 25 | < 10 | < 10 | < 100 | > 25 |  |  |  |  |  | COc1nccc(C2CC2)c1-c1nc2n(n1)CCC(=O)N2Cc1ccc(-c2nc(C(F)(F)F)cn2C(C)C)c(F)c1 [Example 213]
22 | 100 to 500 | > 25 | < 10 | < 10 | < 100 | > 25 |  |  |  |  |  | COc1c(CN2C(=O)CCn3nc(-c4c(Cl)cnn4C(C)C)nc32)ccc(-c2nc(C(F)(F)F)cn2C(C)C)c1F [Example 216]
23 | < 100 | > 25 | ≥ 10 | ≥ 10 | < 100 | > 25 |  |  |  |  |  | CCn1cc(C(F)(F)F)nc1-c1ccc(CN2C(=O)CCn3nc(-c4c(OC)ncnc4C4CC4)nc32)c(OC)c1F [Example 217]
24 | < 100 | < 25 | ≥ 10 | ≥ 10 | < 100 | < 25 |  |  |  |  |  | Cc1cnn(C(C)C)c1-c1nc2n(n1)CCCN2Cc1ccc(-c2nc(C(F)(F)F)cn2C)cc1 [Example 221, 2-(1-isopropyl-4-methyl-1H-pyrazol-5-yl)-4-(4-(1-methyl-4-(trifluoromethyl)-1H-imidazol-2-yl)benzyl)-4,5,6,7-tetrahydro-[1,2,4]triazolo[1,5-α]pyrimidine]
25 | < 100 | < 25 | ≥ 10 | < 10 | < 100 | < 25 |  |  |  |  |  | Cc1cnn(C(C)C)c1-c1nc2n(n1)CCCN2Cc1ccc(-c2nc(C(F)(F)F)cn2C(C)C)cc1 [Example 222, 4-(4-(1-isopropyl-4-(trifluoromethyl)-1H-imidazol-2-yl)benzyl)-2-(1-isopropyl-4-methyl-1H-pyrazol-5-yl)-4,5,6,7-tetrahydro-[1,2,4]triazolo[1,5-a]pyrimidine]
